In US20100056536A1, “METHOD OF TREATING ATRIAL FIBRILLATION” (priority 2008, published 2010):

Key:
[1] = biological target: T1, peak sodium channel current (INa) in canine ventricular myocytes (Canis lupus familiaris, UniProt Q865W3); assay: Whole-cell patch clamp, steady-state inactivation of sodium current in ventricular myocytes; assay type: cell-based; settings: 15 μM ranolazine, before drug −72.53±0.16
T1 construct: Whole-cell peak sodium currents were recorded at 37° C. in low-sodium external solution from myocytes isolated; endogenous in cells; host or cells: myocytes isolated from right atrium and left ventricle of adult mongrel dogs
Experimental: (§1) FIG. 1 presents the voltage dependence of activation and steady-state inactivation of sodium current in canine atrial versus ventricular myocytes. (A) Current-voltage relationship for sodium current in ventricular and atrial myocytes. […] (B) Summarized steady-state inactivation curves. […] Insets show representative atrial and ventricular traces after 1-s conditioning pulses to the indicated potentials. (C) Steady-state inactivation curves before and after addition of 15 μM ranolazine.
(§2) The electrophysiological effects of therapeutic concentrations of ranolazine (1 to 10μmol/L) and lidocaine (2.1 to 21 μmol/L) were evaluated in canine isolated coronary-perfused atrial and ventricular preparations.
(§3) Whole-cell peak sodium currents were recorded at 37° C. in low-sodium external solution from myocytes isolated from the right atrium and left ventricle (LV) of adult mongrel dogs.

[2] = tested on: ventricular Purkinje fibers and M cell preparations; settings: paced at a CL of 500 ms; read-out: IC50 for suppression of Vmax; cited from earlier work
[3] = tested on: canine superfused PV sleeve preparations; assay: Action potential recording in superfused pulmonary vein (PV) sleeve preparations; assay type: cell-based
Experimental: Action potentials (AP) were recorded from canine superfused PV sleeves using microelectrode techniques. Acetylcholine (ACh, 1 μM), isoproterenol (Iso, 1 μM), or their combination was used to induce EADs, DADs, and triggered activity.

late INa = biological target: T2, late INa (Canis lupus familiaris, UniProt Q865W3); settings: canine ventricular myocytes; read-out: IC50 for inhibition of late INa; cited from earlier work
T2 construct: host or cells: canine ventricular myocytes

[4] = biological target: T3, peak sodium channel current (INa) in canine atrial myocytes (Canis lupus familiaris, UniProt Q865W3); assay: Whole-cell patch clamp, steady-state inactivation of sodium current in atrial myocytes; assay type: cell-based; settings: 15 μM ranolazine, n=5, before drug −86.35±0.19
T3 construct: Whole-cell peak sodium currents were recorded at 37° C. in low-sodium external solution from myocytes isolated; endogenous in cells; host or cells: myocytes isolated from right atrium and left ventricle of adult mongrel dogs
Experimental: as §1, §2, §3

peak INa = biological target: T4, peak INa (Canis lupus familiaris, UniProt Q865W3); settings: canine ventricular myocytes; read-out: IC50 for inhibition of peak INa; cited from earlier work
T4 construct: […]; host or cells: canine ventricular myocytes

[5] = tested on: arterially-perfused right atrial preparations; assay: Transmembrane action potentials in arterially-perfused right atrial preparations (Example 4); settings: for action potential duration of pectinate muscle (PM-APD75): untreated 154±11
Source text: Floating microelectrode techniques were used to record transmembrane action potentials (BCL=500 ms).

[6] = tested on: acetylcholine-mediated AF in coronary artery-perfused right atrial preparations; assay: Acetylcholine-mediated persistent AF in coronary artery-perfused right atrial preparations; settings: for Termination of AF (share of preparations): acetylcholine (0.5 μM) persistent AF, ranolazine 10.0 μM, lidocaine 21.0 μM, propafenone 1.5-3.0 μM
[7] = biological target: T5, rapidly activating delayed rectifier potassium current (IKr) (Canis lupus familiaris, UniProt Q9TSZ3); settings: read-out: IC50 for block of IKr; cited from earlier work
T5 sequence (Q9TSZ3 1-1158): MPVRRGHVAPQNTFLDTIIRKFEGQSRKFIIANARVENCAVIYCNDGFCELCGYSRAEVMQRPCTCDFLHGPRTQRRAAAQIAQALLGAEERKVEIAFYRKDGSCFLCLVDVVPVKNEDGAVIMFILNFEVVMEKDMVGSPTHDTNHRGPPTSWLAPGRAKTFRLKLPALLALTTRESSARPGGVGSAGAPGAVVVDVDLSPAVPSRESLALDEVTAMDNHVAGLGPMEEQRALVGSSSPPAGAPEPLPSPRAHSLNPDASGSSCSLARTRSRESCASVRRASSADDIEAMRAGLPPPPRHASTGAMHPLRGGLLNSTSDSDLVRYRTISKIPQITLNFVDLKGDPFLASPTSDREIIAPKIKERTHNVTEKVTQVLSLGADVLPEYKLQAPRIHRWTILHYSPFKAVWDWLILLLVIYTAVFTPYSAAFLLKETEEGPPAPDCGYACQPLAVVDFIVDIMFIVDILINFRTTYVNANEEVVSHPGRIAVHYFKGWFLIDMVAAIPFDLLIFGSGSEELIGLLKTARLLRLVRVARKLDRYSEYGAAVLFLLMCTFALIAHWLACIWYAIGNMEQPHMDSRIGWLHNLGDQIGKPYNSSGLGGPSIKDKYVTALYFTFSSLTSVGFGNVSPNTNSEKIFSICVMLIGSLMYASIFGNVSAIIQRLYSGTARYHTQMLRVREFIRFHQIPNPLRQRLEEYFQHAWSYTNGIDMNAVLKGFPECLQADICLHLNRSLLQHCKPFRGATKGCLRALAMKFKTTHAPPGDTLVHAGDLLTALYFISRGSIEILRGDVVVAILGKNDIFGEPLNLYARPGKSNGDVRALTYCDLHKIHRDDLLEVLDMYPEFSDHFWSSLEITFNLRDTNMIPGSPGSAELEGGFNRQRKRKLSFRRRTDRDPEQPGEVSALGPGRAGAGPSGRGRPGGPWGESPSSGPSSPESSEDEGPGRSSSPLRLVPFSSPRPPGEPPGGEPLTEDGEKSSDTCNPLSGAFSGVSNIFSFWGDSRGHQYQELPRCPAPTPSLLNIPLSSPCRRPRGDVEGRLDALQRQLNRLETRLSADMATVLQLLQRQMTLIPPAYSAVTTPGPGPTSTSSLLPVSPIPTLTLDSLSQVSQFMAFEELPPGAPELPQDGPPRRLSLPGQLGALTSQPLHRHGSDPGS

[8] = tested on: canine left ventricular arterially perfused wedge preparations; assay: Electrophysiology (APD90, sodium channel-dependent parameters) in arterially perfused ventricular wedge preparations; settings: for DTE (% Δ) Ventricles, diastolic threshold of excitation: ranolazine 10 μM, lidocaine 21 μM, propafenone 1.5 μM; for effect on APD90 in ventricular myocardium, in words: ranolazine 1 to 10 μmol/L, lidocaine 2.1 to 21 μmol/L
Experimental: (§4) Experiments were performed using isolated arterially perfused canine right atrial preparations and left ventricular arterially perfused wedge preparations (Antzelevitch et al. Circulation. 2004;110:904-910, Burashnikov et al. Am J Physiol. 2004;286:H2393-H2400., and Burashnikov et al. Circulation. 2003;107:2355-2360.) Therapeutic plasma concentrations of ranolazine (1-10 μM), lidocaine (2.1-21 μM), and propafenone (0.3-3.0 μM) were examined.
(§5) Sodium channel-mediated parameters, such as the maximum rate of rise of the AP upstroke (Vmax), conduction velocity (CV), diastolic threshold of excitation (DTE), and post-repolarization refractoriness (PRR) were evaluated. PRR was defined as the difference between action potential duration (APD) and atrial effective refractory period (ERP).

[9] = tested on: self-terminating AF in atria exposed to ischemia and β-adrenergic agonists; assay: AF induced by ischemia and β-adrenergic agonists in atria; assay type: cell-based, canine; settings: ranolazine 5-10 μM
Source text: Ischemia/reperfusion coupled with iso-proterenol mimics the conditions that prevail during acute myocardial infarction or the substrate encountered postsurgically.

Purkinje fibers = assay: Action potential duration in Purkinje fibers; assay type: cell-based, canine; settings: ranolazine 1 to 10 μmol/L
Experimental: as §2

[10] = tested on: canine isolated coronary artery-perfused right atrial preparations; assay: Electrophysiology (APD90, sodium channel-dependent parameters) in isolated coronary artery-perfused atrial preparations; settings: for effect on action potential duration (APD90) in atria, in words: ranolazine 1 to 10 μmol/L, lidocaine 2.1 to 21 μmol/L
Experimental: as §4, §5

[11] = drug alone: chronic Amio (6 weeks, 40 mg/kg daily) PV sleeves, or 10 μM ranolazine in untreated controls, untreated 124 ms
[12] = acute ranolazine 5 μM in chronic AMIO treated atria, BCL=500 ms
[13] = drug alone: chronic AMIO (40 mg/kg daily for 6 weeks) or acute ranolazine 5 μM in untreated atria, BCL=500 ms
[14] = drug alone: chronic AMIO (40 mg/kg daily for 6 weeks) or acute ranolazine 5 μM in untreated atria, BCL=500 ms, untreated 158±18

Compound | average CL at which 2:1 activation failure developed [3, 11] [ms] | action potential duration of pectinate muscle (PM-APD75) [5, 13] [ms] | effective refractory period (ERP) [5, 14] [ms] | Termination of AF (share of preparations) [6] | change (prolongation) of APD90 in ventricles ([8]; CL=500 ms) | DTE (% Δ) Ventricles, diastolic threshold of excitation ([8]; pacing cycle length 0.3 s) [%] | DTE (% Δ) Ventricles, diastolic threshold of excitation ([8]; pacing cycle length 0.5 s) | effect on APD90 in ventricular myocardium, in words [8] | atrial selectivity of depression of sodium channel-dependent parameters (atria versus ventricles), in words [10] | prolongation of APD90 in atria ([10]; CL=500 ms) [%] | effect on action potential duration (APD90) in atria, in words [10] | other results
COc1ccccc1OCC(O)CN1CCN(CC(=O)Nc2c(C)cccc2C)CC1 (racemic) [Ranolazine, (±)-N-(2,6-dimethylphenyl)-4-[2-hydroxy-3-(2-methoxyphenoxy)-propyl]-1-piperazineacetamide] | 190 | 159 ± 9 | 190 ± 24 | 66% (4/6) | +2% | 8 | +3% | no effect | striking atrial selectivity | 11 | prolongation | half-inactivation voltage (V0.5) of steady-state inactivation after ranolazine [1]: −74.81±0.14 mV; IC50 [2]: > 100 µM; average CL at which 2:1 activation failure developed ([3]; 5 μM RAN superfused on chronic Amio PV sleeves, n=5): 1350 ms; average CL at which 2:1 activation failure developed ([3]; 10 μM RAN superfused on chronic Amio PV sleeves, n=5): 1660 ms; late phase 3 EAD- and DAD-induced triggered activity ([3]; RAN 5-10 μM added to chronic Amio PV sleeves, Iso and/or ACh, rapid pacing): completely eliminated; IC50 (late INa): 6 µM; half-inactivation voltage (V0.5) of steady-state inactivation after ranolazine [4]: −91.38±0.35 mV; IC50 (peak INa): 294 µM; action potential duration APD75 [5, 12]: 189 ± 9 ms; effective refractory period (ERP) [5, 12]: 258 ± 50 ms; shortest pacing CL permitting 1:1 response ([5]; in presence of acetylcholine (ACh), control 71±12): 94 ± 31 ms; shortest pacing CL permitting a 1:1 response ([5]; without acetylcholine, control 129±8): 234 ± 49 ms; IC50 [7]: 12 µM; atria in which induction of AF was prevented [9]: 4 of 5; effect on APD90 in Purkinje fibers, in words (Purkinje fibers): abbreviation
CCCCc1oc2ccccc2c1C(=O)c1cc(I)c(OCCN(CC)CC)c(I)c1 [Chronic Amiodarone, amiodarone] | 420 | 183 ± 7 | 222 ± 12 | – | 12% | – | – | – | – | 22 | – | maximal rate of rise of AP upstroke (Vmax) ([3]; PV sleeves from dogs treated with chronic Amio (6 weeks, 40 mg/kg daily), CL 1000 ms, untreated controls 314±79): 115±89 V/s; atria in which persistent acetylcholine-mediated AF could be induced ([6]; atria isolated from dogs chronically treated, versus 10 of 10 untreated atria): 1 of 6
CCN(CC)CC(=O)Nc1c(C)cccc1C [Lidocaine, lidocaine] | – | – | – | 33% (2/6) | – | 40 | +8% | abbreviated | much less atrial-selective than ranolazine or chronic amiodarone | – | abbreviated | abbreviation of APD90 in ventricles ([8]; CL=500 ms): 9%; abbreviation of APD90 in atria ([10]; CL=500 ms): 6%
CCCNCC(O)COc1ccccc1C(=O)CCc1ccccc1 (stereo not shown) [Propafenone, propafenone] | – | – | – | 100% (7/7) | +3% | 125 | +84% | – | – | 13 | – | –
